# Measured values reported in patent US20250177338A1 (URIACH ITALY S.R.L., priority 2022, published 2025).
# Assays:
# [1] = system: ERK/MAPK; conditions: liver level; NAC 12 mM, VitD 100 nM, G 5 mM, LA 50 μM
# Protocol: Human epithelial cells (HepG2) were purchased from ATCC, and cultured in DMEM supplemented with 10% FBS, L-glutamine 2 mM and 1% penicillin-streptomycin, at 37° C., 5% CO2. […] ERK/MAPK activity was measured by InstantOne™ ELISA (Thermo Fisher) on cell lysates following the manufacturer's instructions. The strips were measured by a spectrometer (VICTOR X4, multiwell plate reader) at 450 nm. Results were expressed as mean absorbance (%) compared with control.
# [2] = system: GTL-16 cell line; conditions: pre-digested model, 2, 3, 4 and 6 hours; NAC 12 mM, VitD 100 nM, G 5 mM
# Protocol: The GTL-16 cell line, donated by the Laboratory of Histology, University of Eastern Piedmont (Italy), is a clonal line derived from a poorly differentiated gastric carcinoma cell line widely used as a model of gastric epithelial cells. Cells were cultured in Dulbecco's Modified Eagle medium (DMEM, Merck Life Science, Rome, Italy) supplemented with 10% fetal bovine serum (Fetal Bovine Serum, FBS), 1% penicillin-streptomycin, in an incubator at 37° C., 5% CO2. 1×10^4 cells were used to explore cell viability by MTT.
# At the end of stimulation, cells were incubated with 1% MTT dye for 2 h at 37° C. in an incubator, 5% CO2 and 95% humidity, and then purple formazan crystals were dissolved in an equal volume of MTT solubilization solution.
# [3] = system: HepG2; assay: Hepatic absorption test; assay type: in vitro ADME, Human; conditions: NAC 12 mM, VitD 100 nM, G 5 mM, LA 50 μM
# Protocol: Human epithelial cells (HepG2) were purchased from ATCC, and cultured in DMEM supplemented with 10% FBS, L-glutamine 2 mM and 1% penicillin-streptomycin, at 37° C., 5% CO2.
# [4] = system: NSC-34/IFRS1 co-culture; assay: Mitochondrial metabolism at Peripheral Nervous System level; assay type: cell-based, rat; conditions: added to NAC 12 mM, VitD 100 nM, G 5 mM
# Protocol: In order to recreate a peripheral nervous system in vitro, a myelinating co-culture system was used with an NSC-34 motor neuron-like cell line and an IFRS1 adult rat Schwann cell line according to a protocol reported in the literature. IFRS1 cells were seeded on 100-mm plastic discs (Greiner Bio-One GmbH, Frickenhausen, Germany, 664-160-013) at an approximate density of 2×10^4/cm^2 and maintained in DMEM containing 5% FBS, recombinant human eregulin-β (EMD Millipore, Billerica, MA, USA) 20 ng/mL, forskolin (Sigma, St. Louis, MO, USA) 5 μM and antifungal antibiotic solution (penicillin 100 U/mL, streptomycin 100 μg/mL and amphotericin 250 ng/mL; Sigma). NSC-34 cells were seeded on 100-mm plastic discs at an approximate density of 1×10^4/cm^2 and maintained in DMEM containing antibiotic antifungal solution and 5% FBS. At semi-confluence, cells were detached from the discs using 0.05% trypsin/EDTA 0.53 mM solution, suspended in DMEM/F12 Ham containing 5% FBS in a 50 mL polypropylene conical tube, and reseeded on Aclar fluorocarbon coverslips coated with poly-L-lysine/laminine, 12-well culture plates coated with type I collagen, and 2-well glass chamber slides coated with type I collagen at an approximate density of 2×10^3/cm^2. […]
molecule,measurement,setting,value
"N[C@@H](CCC(=O)N[C@@H](CS)C(=O)NCC(=O)O)C(=O)O [glutathione, (2S)-2-amino-5-[[(2R)-1-(carboxymethylamino)-1-oxo-3-sulfanylpropan-2-yl]amino]-5-oxopentanoic acid]",ERK activity,[1],further enhances the conservation of these biological activities
same,cell viability,[2],contributes to increased cell viability
same,hepatic absorption,[3],further increases hepatic absorption
Vitamin D [VitD],mitochondrial activity,[4],contributes to increased mitochondrial activity
